The values that follow come from US10669272B2, “Substituted naphthyridinone compounds useful as T cell activators” (BRISTOL-MYERS SQUIBB COMPANY, priority 2018, dated 2020).

SMILES strings stand for the structures. Like-named read-outs stand apart in the source and are kept apart here.

What is called IC50 is the concentration at which inhibition is half-maximal.

The target of one assay is T1, human DGKζ (Homo sapiens, UniProt Q13574).
T1 construct: TVMV protease cleavage site (C); Hexa-His (C); made in house; host or cells: Sf9 insect cells (baculovirus, Bac-to-Bac)
The assay can be described thus: DGKζ LIPGLO assay (extruded liposome substrate), in vitro DGK inhibition. As to conditions: read-out: DGKz LIPGLO IC50. The format is biochemical.

In the next assay the target is T2, human DGKα (Homo sapiens, UniProt P23743).
T2 construct: TVMV protease cleavage site (C); Hexa-His (C); made in house; host or cells: Sf9 insect cells (baculovirus, Bac-to-Bac)
The assay can be described thus: DGKα LIPGLO assay (extruded liposome substrate), in vitro DGK inhibition. As to conditions: read-out: DGKa LIPGLO IC50. The format is biochemical.

T2 sequence (P23743 with tags, fused parts or gaps): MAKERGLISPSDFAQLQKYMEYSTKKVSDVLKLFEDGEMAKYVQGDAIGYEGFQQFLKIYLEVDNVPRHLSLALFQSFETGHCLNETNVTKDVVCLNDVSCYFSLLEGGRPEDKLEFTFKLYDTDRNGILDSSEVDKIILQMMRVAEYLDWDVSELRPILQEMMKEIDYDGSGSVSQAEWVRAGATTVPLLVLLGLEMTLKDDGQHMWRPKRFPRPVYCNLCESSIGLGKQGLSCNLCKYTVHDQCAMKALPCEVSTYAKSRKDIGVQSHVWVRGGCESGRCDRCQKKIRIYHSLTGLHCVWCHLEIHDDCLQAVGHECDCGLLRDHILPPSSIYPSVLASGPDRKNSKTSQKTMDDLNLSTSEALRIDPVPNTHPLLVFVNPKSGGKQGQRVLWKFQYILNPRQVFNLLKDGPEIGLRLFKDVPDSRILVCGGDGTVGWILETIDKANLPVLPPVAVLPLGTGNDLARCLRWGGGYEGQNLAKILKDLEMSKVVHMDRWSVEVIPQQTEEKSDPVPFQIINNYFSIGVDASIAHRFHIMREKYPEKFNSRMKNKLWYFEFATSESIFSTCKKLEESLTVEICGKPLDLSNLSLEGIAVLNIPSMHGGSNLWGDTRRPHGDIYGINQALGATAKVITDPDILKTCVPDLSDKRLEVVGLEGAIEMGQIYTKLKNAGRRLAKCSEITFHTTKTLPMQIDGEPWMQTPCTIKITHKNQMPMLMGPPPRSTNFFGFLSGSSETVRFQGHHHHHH
T1 sequence (Q13574 with tags, fused parts or gaps isoform Q13574-4): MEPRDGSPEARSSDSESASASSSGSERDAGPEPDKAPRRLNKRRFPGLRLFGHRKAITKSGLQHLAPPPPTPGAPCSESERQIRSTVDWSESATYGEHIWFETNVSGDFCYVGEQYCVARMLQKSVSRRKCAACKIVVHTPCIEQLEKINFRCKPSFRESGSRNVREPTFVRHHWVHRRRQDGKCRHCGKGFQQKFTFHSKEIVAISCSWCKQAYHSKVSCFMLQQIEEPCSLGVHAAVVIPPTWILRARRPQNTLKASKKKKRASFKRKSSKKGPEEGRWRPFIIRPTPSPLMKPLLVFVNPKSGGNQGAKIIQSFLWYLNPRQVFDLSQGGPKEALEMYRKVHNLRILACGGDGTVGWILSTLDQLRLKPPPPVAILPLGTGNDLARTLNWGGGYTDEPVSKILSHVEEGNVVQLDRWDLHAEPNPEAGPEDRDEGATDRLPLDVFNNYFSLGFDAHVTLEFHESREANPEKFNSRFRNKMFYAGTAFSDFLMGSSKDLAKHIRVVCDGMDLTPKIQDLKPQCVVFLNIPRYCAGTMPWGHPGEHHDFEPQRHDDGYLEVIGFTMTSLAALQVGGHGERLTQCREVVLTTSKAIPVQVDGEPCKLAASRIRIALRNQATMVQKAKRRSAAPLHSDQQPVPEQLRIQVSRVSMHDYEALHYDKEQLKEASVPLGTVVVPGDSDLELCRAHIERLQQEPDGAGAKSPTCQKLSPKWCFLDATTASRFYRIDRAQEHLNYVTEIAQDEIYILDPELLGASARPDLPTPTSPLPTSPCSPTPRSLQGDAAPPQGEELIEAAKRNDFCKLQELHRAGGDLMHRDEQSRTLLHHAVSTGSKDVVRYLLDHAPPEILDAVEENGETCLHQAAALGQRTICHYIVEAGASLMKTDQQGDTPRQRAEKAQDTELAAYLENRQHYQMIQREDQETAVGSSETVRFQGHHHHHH

`Cc1ncc(C(c2ccc(Cl)cc2)N2C[C@H](C)N(c3cc(=O)n(C)c4ccc(C#N)nc34)C[C@H]2C)cn1` (stereo partly drawn) [Example 385, 8-((2S,5R)-4-((4-chlorophenyl) (2-methylpyrimidin-5-yl)methyl)-2,5-dimethylpiperazin-1-yl)-5-methyl-6-oxo-5,6-dihydro-1,5-naphthyridine-2-carbonitrile]: the figures for the IC50 at human DGKζ (liposome (LIPGLO) assay) and on human DGKα (liposome (LIPGLO) assay) were 6.3 µM and 3.3 µM, respectively.
As for `C[C@@H]1CN(c2cc(=O)n(C)c3ccc(C#N)nc23)[C@@H](C)CN1C(c1ccc(Cl)cc1)c1ccc2c(c1)OC(F)(F)O2` (single isomer, unassigned) [Example 656], the IC50 at human DGKζ (liposome (LIPGLO) assay) came to 4 µM; on human DGKα (liposome (LIPGLO) assay), 23 µM.
In the same order, the values of `CC[C@H]1CN(C(C)c2ccc(C3CC3)cc2F)[C@H](CC)CN1c1cc(=O)n(C)c2ccc(C#N)nc12` (single isomer, unassigned) [Example 1357] are 0.02 µM and 0.12 µM.
For the compound `Cn1c(=O)c(C#N)c(N2CCN(C(c3ccc(F)cc3)c3ccc(F)cc3)C(C(N)=O)C2)c2nc(C#N)ccc21` (single isomer, unassigned) [Example 58, 1-(bis (4-fluorophenyl)methyl)-4-(3,6-dicyano-1-methyl-2-oxo-1,2-dihydro-1,5-naphthyridin-4-yl)piperazine-2-carboxamide], the IC50 worked out at 180 µM at human DGKζ (liposome (LIPGLO) assay) and 7.2 µM on human DGKα (liposome (LIPGLO) assay).
For `CC(c1cc(OC(F)F)ccc1F)N1C[C@H](C)N(c2cc(=O)n(C)c3ccc(C#N)nc23)C[C@H]1C` (single isomer, unassigned) [Example 1228] the same measures were 3 µM and 5.4 µM.
In the same order, the values of `C[C@@H]1CN(c2cc(=O)n(C)c3ccc(C#N)nc23)[C@@H](C)CN1C(CO)c1ccc(C(F)(F)F)cn1` (stereo partly drawn) [Example 1279, 8-((2S,5R)-4-(2-hydroxy-1-(5-(trifluoromethyl)pyridin-2-yl)ethyl)-2,5-dimethylpiperazin-1-yl)-5-methyl-6-oxo-5,6-dihydro-1,5-naphthyridine-2-carbonitrile] are 1.4 µM and 1.4 µM.
For `C[C@@H]1CN(c2c(C#N)c(=O)n(C)c3ccc(C#N)nc23)CCN1C(c1ccc(F)cc1)c1cncnc1` (stereo partly drawn) [Example 317, 8-((3R)-4-((4-fluorophenyl)(pyrimidin-5-yl)methyl)-3-methylpiperazin-1-yl)-5-methyl-6-oxo-5,6-dihydro-1,5-naphthyridine-2,7-dicarbonitrile] the same measures were 13 µM and 3.8 µM.
With `C[C@@H]1CN(c2c(C#N)c(=O)n(C)c3ccc(C#N)nc23)CCN1C(c1ccc(F)cc1)c1ccncn1` (single isomer, unassigned) [Example 313], the figures for the IC50 at human DGKζ (liposome (LIPGLO) assay) and on human DGKα (liposome (LIPGLO) assay) were 4.8 µM and 2.3 µM, respectively.
In the same order, the values of `Cn1c(=O)cc(N2CC(C3CC3)N(C(c3ccc(F)cc3)c3ccc(F)cc3)CC2C2CC2)c2nc(C#N)ccc21` (single isomer, unassigned) [Example 153, 8-(4-(bis(4-fluorophenyl)methyl)-2,5-dicyclopropylpiperazin-1-yl)-5-methyl-6-oxo-5,6-dihydro-1,5-naphthyridine-2-carbonitrile] are 240 µM and 240 µM.
As for `CC[C@@H]1CN(c2cc(=O)n(C)c3ccc(C#N)nc23)[C@@H](C)CN1C(c1cccc(F)c1)c1ccc(F)cn1` (single isomer, unassigned) [Example 1108], the IC50 was 0.09 µM at human DGKζ (liposome (LIPGLO) assay) and 0.031 µM at human DGKα (liposome (LIPGLO) assay).
`Cc1cc(C(c2ccc(F)cc2)N2C[C@H](C)N(c3c(C#N)c(=O)n(C)c4ccc(C#N)nc34)C[C@H]2C)no1` (single isomer, unassigned) [Example 865]: the IC50 is 14 µM at human DGKζ (DGKζ liposome (LIPGLO) assay) and 18 µM at human DGKα (DGKα liposome (LIPGLO) assay).
Turning to `CC[C@@H]1CN(c2cc(=O)n(C)c3ccc(C#N)nc23)[C@@H](C)CN1C(C)c1ccc(F)cc1F` (single isomer, unassigned) [Example 1088], the IC50 amounted to 4.9 µM at human DGKζ (liposome (LIPGLO) assay) and 3.4 µM on human DGKα (liposome (LIPGLO) assay).
